# Laboratory results taken from US20260215423A1, “NOVEL CARBOXAMIDE AND SULFONAMIDE PESTICIDAL COMPOUNDS” (SYNGENTA CROP PROTECTION AG, priority 2023, published 2026).
# Assays:
# Assay type in all cases: in vivo
# [1] = test system: Myzus persicae (Green Peach Aphid); assay: Myzus persicae (Green Peach Aphid). Intrinsic Activity; settings: 120 h, test rate of 12 ppm, mixed with sucrose solution, feeding through Parafilm, 5 days after infestation
# Excerpt: Example B7: Myzus persicae (Green Peach Aphid). Intrinsic Activity
# Test compounds prepared from 10′000 ppm DMSO stock solutions were applied by pipette into 24-well microtiter plates and mixed with sucrose solution. The plates were closed with a stretched Parafilm. A plastic stencil with 24 holes was placed onto the plate and infested pea seedlings were placed directly on the Parafilm. The infested plate was closed with a gel blotting paper and another plastic stencil and then turned upside down. The samples were assessed for mortality 5 days after infestation.
# [2] = test system: Myzus persicae (Green Peach Aphid); assay: Myzus persicae (Green Peach Aphid): Feeding/Contact Activity, sunflower leaf discs; settings: foliar, 144 h, application rate of 200 ppm, sunflower leaf discs sprayed, aphid population of mixed ages, 6 days after infestation
# Protocol: Example B6: Myzus persicae (Green Peach Aphid):Feeding/Contact Activity
# Sunflower leaf discs were placed onto agar in a 24-well microtiter plate and sprayed with aqueous test solutions prepared from 10′000 ppm DMSO stock solutions. After drying, the leaf discs were infested with an aphid population of mixed ages. The samples were assessed for mortality 6 days after infestation.
# [3] = test system: Myzus persicae (Green Peach Aphid); assay: Myzus persicae (Green Peach Aphid) Feeding/Contact Activity, eggplant leaf discs; settings: foliar, 144 h, application rate of 200 ppm, eggplant leaf discs sprayed, aphid population of mixed ages, 6 days after infestation, read-out: growth inhibition
# Excerpt: Example B8: Myzus persicae (Green Peach Aphid) Feeding/Contact Activity Eggplant leaf discs were placed onto agar in a 24-well microtiter plate and sprayed with aqueous test solutions prepared from 10′000 ppm DMSO stock solutions. After drying, the leaf discs were infested with an aphid population of mixed ages. […]
# [4] = test system: Tetranychus urticae (Two-Spotted Spider Mite); assay: Tetranychus urticae (Two-Spotted Spider Mite): Feeding/Contact Activity; settings: foliar, 192 h, application rate of 200 ppm, bean leaf discs sprayed, mite population of mixed ages (mobile stages), 8 days after infestation
# Protocol: Example B11: Tetranychus urticae (Two-Spotted Spider Mite):Feeding/Contact Activity
# Bean leaf discs on agar in 24-well microtiter plates were sprayed with aqueous test solutions prepared from 10,000 ppm DMSO stock solutions. After drying the leaf discs were infested with a mite population of mixed ages. The samples were assessed for mortality on mixed population (mobile stages) 8 days after infestation.
# [5] = test system: Plutella xylostella (Diamond back moth); assay: Plutella xylostella (Diamond back moth); settings: 192 h, application rate of 200 ppm, artificial diet treated by pipetting, Plutella eggs, 8 days after infestation, read-out: effect in at least one of the two categories (mortality or growth inhibition)
# Protocol: After drying, Plutella eggs were pipetted through a plastic stencil onto a gel blotting paper and the plate was closed with it. The samples were assessed for mortality and growth inhibition in comparison to untreated samples 8 days after infestation.
# [6] = test system: Euschistus heros (Neotropical Brown Stink Bug); assay: Euschistus heros (Neotropical Brown Stink Bug); settings: 120 h, application rate of 200 ppm, soybean leaves sprayed, N2 nymphs, 5 days after infestation, read-out: effect in at least one of the two categories (mortality or growth inhibition)
# Protocol: Example B3: Euschistus heros (Neotropical Brown Stink Bug)
# Soybean leaves on agar in 24-well microtiter plates were sprayed with aqueous test solutions prepared from 10′000 ppm DMSO stock solutions. After drying the leaves were infested with N2 nymphs. The samples were assessed for mortality and growth inhibition in comparison to untreated samples 5 days after infestation.
# [7] = test system: Frankliniella occidentalis (Western Flower Thrips); assay: Frankliniella occidentalis (Western Flower Thrips): Feeding/Contact Activity, sunflower leaf discs; settings: foliar, 168 h, application rate of 200 ppm, sunflower leaf discs sprayed, population of mixed ages, 7 days after infestation
# Protocol: Example B4: Frankliniella occidentalis (Western Flower Thrips):Feeding/Contact Activity
# (§1) Sunflower leaf discs were placed on agar in 24-well microtiter plates and sprayed with aqueous test solutions prepared from […] stock solutions. After drying the leaf discs were infested with a Frankliniella population of mixed ages. The samples were assessed for mortality 7 days after infestation.
# [8] = test system: Diabrotica balteata (Corn root worm); assay: Diabrotica balteata (Corn root worm); settings: 96 h, application rate of 200 ppm, maize sprouts sprayed, L2 larvae, 4 days after infestation, read-out: effect in at least one of the two categories (mortality or growth inhibition)
# Protocol: Example B2: Diabrotica balteata (Corn root worm)
# Maize sprouts placed onto an agar layer in 24-well microtiter plates were treated with aqueous test solutions prepared from 10′000 ppm DMSO stock solutions by spraying. After drying, the plates were infested with L2 larvae (6 to 10 per well). The samples were assessed for mortality and growth inhibition in comparison to untreated samples 4 days after infestation.
# [9] = test system: Frankliniella occidentalis (Western Flower Thrips); assay: Frankliniella occidentalis (Western Flower Thrips) Feeding/Contact Activity, bean leaf discs; settings: foliar, 96 h, application rate of 200 ppm, bean leaf discs sprayed, population of mixed ages, 4 days after infestation, read-out: growth inhibition
# Protocol: as §1, with “Example B5: Frankliniella occidentalis (Western Flower Thrips) Feeding/Contact Activity Bean” for “Sunflower”, “4” for “7”
SMILES,mortality at 12 ppm [1] [%],inhibition at 200 ppm [3] [%],other results
CCC(=O)NCc1cc(OC[C@H](C)NS(=O)(=O)C(F)(F)F)cnc1Cl [P-1],≥ 80,–,mortality at 200 ppm [2]: ≥ 80%
C[C@@H](COc1ccc(Cl)c(CNC(=O)C2CC2)c1)NS(=O)(=O)C(F)(F)F [P-2],≥ 80,≥ 80,mortality at 200 ppm [4]: ≥ 80%; percent effect (mortality or growth inhibition) at 200 ppm [5]: ≥ 80%; mortality at 200 ppm [2]: ≥ 80%
CCC(=O)NCc1cc(OC[C@H](C)NS(=O)(=O)C(F)(F)F)ccc1Cl [P-4],≥ 80,≥ 80,percent effect (mortality or growth inhibition) at 200 ppm [6]: ≥ 80%; mortality at 200 ppm [7]: ≥ 80%; mortality at 200 ppm [4]: ≥ 80%; percent effect (mortality or growth inhibition) at 200 ppm [8]: ≥ 80%; percent effect (mortality or growth inhibition) at 200 ppm [5]: ≥ 80%; mortality at 200 ppm [2]: ≥ 80%
"CCC(=O)NCc1cc(OC[C@H](C)N(COC)S(=O)(=O)C(F)(F)F)cnc1Cl [P-5, N-[[2-chloro-5-[(2S)-2-[methoxymethyl(tri-fluoromethylsulfonyl)-amino]propoxy]-3-pyridyl]methyl]propan-amide]",≥ 80,≥ 80,mortality at 200 ppm [2]: ≥ 80%
C[C@@H](COc1ccc(Cl)c(CNC(=O)C2CSC2)c1)NS(=O)(=O)C(F)(F)F [P-6],≥ 80,–,–
C[C@@H](COc1ccc(Cl)c(CNC(=O)C2CCC2)c1)NS(=O)(=O)C(F)(F)F [P-7],≥ 80,–,percent effect (mortality or growth inhibition) at 200 ppm [5]: ≥ 80%
C[C@@H](COc1ccc(Cl)c(CNC(=O)C2CCC2)c1)N(C(=O)C1CCC1)S(=O)(=O)C(F)(F)F [P-8],≥ 80,–,percent effect (mortality or growth inhibition) at 200 ppm [5]: ≥ 80%
"C[C@@H](COc1cnc(Cl)c(CNC(=O)C2CC2)c1)NS(=O)(=O)C(F)(F)F [P-9, N-[[2-chloro-5-[(2S)-2-(trifluoromethylsulfon-ylamino)propoxy]-3-pyridyl]methyl]cyclo-propanecarboxamide]",≥ 80,–,percent effect (mortality or growth inhibition) at 200 ppm [5]: ≥ 80%
CCC(=O)NCc1cc(OC[C@H](C)NS(=O)(=O)C(Cl)Cl)ccc1Cl [P-10],≥ 80,–,–
CCC(=O)NCc1cc(OC[C@H](C)NS(=O)(=O)C(F)F)ccc1Cl [P-11],≥ 80,–,percent effect (mortality or growth inhibition) at 200 ppm [5]: ≥ 80%
"CCC(=O)NCc1cc(OC[C@H](C)NS(=O)(=O)c2ccc(C#N)c(Cl)c2)ccc1Cl [P-12, N-[[2-chloro-5-[(2S)-2-[(3-chloro-4-cyano-phenyl)sulfonylamino]propoxy]phenyl]meth-yl]propanamide]",–,–,percent effect (mortality or growth inhibition) at 200 ppm [8]: ≥ 80%
"CCC(=O)NCc1cc(OC[C@H](C)NS(=O)(=O)c2cnc(Cl)c(Cl)c2)ccc1Cl [P-13, N-[[2-chloro-5-[(2S)-2-[(5,6-dichloro-3-pyridyl)sulfonylamino]propoxy]phenyl]meth-yl]propanamide]",–,–,percent effect (mortality or growth inhibition) at 200 ppm [8]: ≥ 80%; percent effect (mortality or growth inhibition) at 200 ppm [5]: ≥ 80%
"CCC(=O)NC1(c2cc(OC[C@H](C)NS(=O)(=O)C(F)(F)F)ccc2Cl)CC1 [P-14, N-[1-[2-chloro-5-[(2S)-2-(trifluoromethylsul-fonylamino)propoxy]phenyl]cyclopropyl] propanamide]",–,–,percent effect (mortality or growth inhibition) at 200 ppm [8]: ≥ 80%
"CCC(=O)NC(C)(C)c1cc(OC[C@H](C)NS(=O)(=O)C(F)(F)F)ccc1Cl [P-15, N-[1-[2-chloro-5-[(2S)-2-(trifluoromethylsul-fonylamino)propoxy]phenyl]-1-methylethyl] propanamide]",–,–,mortality at 200 ppm [4]: ≥ 80%
"COCC(=O)NCc1cc(OC[C@H](C)N(C(=O)COC)S(=O)(=O)C(F)(F)F)ccc1Cl [P-16, N-[[2-chloro-5-[(2S)-2-[(2-methoxyacetyl)-(trifluoromethylsulfon-yl)amino]propoxy]phenyl]methyl]-2-methoxy-acetamide]",≥ 80,≥ 80,–
"C[C@@H](COc1cnc(Cl)c(CNC(=O)CC2CC2)c1)NS(=O)(=O)C(F)(F)F [P-21, N-[[2-chloro-5-[(2S)-2-(trifluoromethylsul-fonylamino)propoxy]-3-pyridyl]methyl]-2-cyclopropyl-acetamide]",≥ 80,≥ 80,–
C[C@@H](COc1cnc(Cl)c(CNC(=O)C2CCC2(F)F)c1)NS(=O)(=O)C(F)(F)F (stereo partly shown) [P-22],–,–,inhibition at 200 ppm [9]: ≥ 80%
"C[C@@H](COc1cnc(Cl)c(CNC(=O)C2(C#N)CC2)c1)NS(=O)(=O)C(F)(F)F [P-23, N-[[2-chloro-5-[(2S)-2-(trifluoromethylsul-fonylamino)propoxy]-3-pyridyl]methyl]-1-cyano-cyclopropane-carboxamide]",–,≥ 80,–
C[C@@H](COc1cnc(Cl)c(CNC(=O)C2CCC2)c1)NS(=O)(=O)C(F)(F)F [P-24],≥ 80,≥ 80,inhibition at 200 ppm [9]: ≥ 80%
"C[C@@H](COc1cnc(Cl)c(CNC(=O)C23CC(C(F)(F)F)(C2)C3)c1)NS(=O)(=O)C(F)(F)F [P-25, N-[[2-chloro-5-[(2S)-2-(trifluoromethylsulfon-ylamino)propoxy]-3-pyridyl]methyl]-3-(tri-fluoromethyl)bicyclo [1.1.1]pentane-1-carbox-amide]",–,–,inhibition at 200 ppm [9]: ≥ 80%
C[C@@H](COc1cnc(Cl)c(CNC(=O)C2CCCO2)c1)NS(=O)(=O)C(F)(F)F (stereo partly shown) [P-27],–,≥ 80,–
"C[C@@H](COc1cnc(Cl)c(CNC(=O)C(F)(Cl)Cl)c1)NS(=O)(=O)C(F)(F)F [P-29, 2,2-dichloro-N-[[2-chloro-5-[(2S)-2-(trifluoromethylsul-fonylamino)propoxy]-3-pyridyl]methyl]-2-fluoro-acetamide]",–,≥ 80,–
C[C@@H](COc1cnc(Cl)c(CNC(=O)CC2CC2(Cl)Cl)c1)NS(=O)(=O)C(F)(F)F (stereo partly shown) [P-30],–,≥ 80,–
"C[C@@H](COc1cnc(Cl)c(CNC(=O)C(F)F)c1)NS(=O)(=O)C(F)(F)F [P-32, N-[[2-chloro-5-[(2S)-2-(trifluoromethylsul-fonylamino)propoxy]-3-pyridyl]methyl]-2,2-difluoro-acetamide]",≥ 80,–,–
"C[C@@H](COc1cnc(Cl)c(CNC(=O)C2CC(F)(F)C2)c1)NS(=O)(=O)C(F)(F)F [P-35, N-[[2-chloro-5-[(2S)-2-(trifluoromethylsul-fonylamino)propoxy]-3-pyridyl]methyl]-3,3-difluoro-cyclobutane-carboxamide]",–,≥ 80,inhibition at 200 ppm [9]: ≥ 80%
